Measurements from ChEMBL document CHEMBL1201862, “PubChem BioAssay data set” (2004).
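Assay format: 96-well plates, 48-hour exposure. Abbreviation: GI50, concentration required for 50% inhibition of growth.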 Calls of active or inactive are those of the source. Cut-off read from the data, not from the text of the source: active = GI50 up to about 1.1 µM and inactive = higher.

Columns and labels:
Assay in all cases: NCI tumour cell line growth inhibition, 48 h
ACHN = tested on: ACHN
CCRF-CEM = tested on: CCRF-CEM
DU-145 = tested on: DU-145
HL-60 = tested on: HL-60
HOP-62 = tested on: HOP-62
IGROV-1 = tested on: IGROV-1
K562 = tested on: K562
LOX IMVI = tested on: LOX IMVI
M14 = tested on: M14
MCF7 = tested on: MCF7
MDA-MB-435 = tested on: MDA-MB-435
MOLT-4 = tested on: MOLT-4
NCI-H226 = tested on: NCI-H226
OVCAR-3 = tested on: OVCAR-3
RPMI-8226 = tested on: RPMI-8226
SK-MEL-2 = tested on: SK-MEL-2
SK-OV-3 = tested on: SK-OV-3
SNB-19 = tested on: SNB-19
T47D = tested on: T47D
TK-10 = tested on: TK-10

Measured: GI50

CCOC(=O)Cc1csc(NC(NC(=O)OCC)(C(=O)OCC)C(F)(F)F)n1 (stereo not given)
inactive: ACHN > 100 µM | CCRF-CEM > 100 µM | DU-145 > 100 µM | HL-60 > 100 µM | HOP-62 > 100 µM | IGROV-1 > 100 µM | K562 > 100 µM | LOX IMVI > 100 µM | M14 > 100 µM | MCF7 > 100 µM | MDA-MB-435 > 100 µM | MOLT-4 > 100 µM | NCI-H226 > 100 µM | OVCAR-3 > 100 µM | RPMI-8226 > 100 µM | SK-MEL-2 > 100 µM | SK-OV-3 > 100 µM | SNB-19 > 100 µM | T47D > 100 µM | TK-10 > 100 µM

C=C1c2nc3ccccc3n2C=C(c2ccc(OC)cc2)N1c1ccc(OCCN2CCOCC2)cc1
inactive: ACHN 46.9 µM | CCRF-CEM 3.73 µM | DU-145 > 54.8 µM | HL-60 4.31 µM | HOP-62 > 100 µM | IGROV-1 > 100 µM | K562 7.62 µM | LOX IMVI 13.3 µM | M14 9.73 µM | MCF7 12.3 µM | MDA-MB-435 24.3 µM | MOLT-4 3.75 µM | NCI-H226 > 100 µM | OVCAR-3 > 100 µM | RPMI-8226 1.91 µM | SK-MEL-2 18.5 µM | SK-OV-3 > 100 µM | SNB-19 > 100 µM | T47D > 100 µM | TK-10 18.1 µM

Cc1cc(O)nc(NN2C(Cl)C(=O)C2c2ccc(Cl)cc2)n1 (stereo not given)
inactive: ACHN 23 µM | CCRF-CEM 1.87 µM | DU-145 23.3 µM | HL-60 3.18 µM | HOP-62 19.6 µM | IGROV-1 3.61 µM | K562 2.88 µM | LOX IMVI 4.15 µM | M14 13.4 µM | MCF7 12.8 µM | MDA-MB-435 23.4 µM | MOLT-4 6.65 µM | NCI-H226 11.9 µM | OVCAR-3 13.6 µM | RPMI-8226 8.55 µM | SK-MEL-2 19.3 µM | SK-OV-3 41.8 µM | SNB-19 19.4 µM | T47D 16.6 µM | TK-10 19.8 µM

O=C1C2CCN(CC2)C1(CO)CO
inactive: ACHN 17.9 µM | CCRF-CEM 5.06 µM | DU-145 17.3 µM | HL-60 38.7 µM | HOP-62 > 88.5 µM | IGROV-1 > 89.5 µM | K562 23.6 µM | LOX IMVI 16 µM | M14 18.3 µM | MCF7 24.7 µM | MDA-MB-435 61.5 µM | MOLT-4 7.01 µM | NCI-H226 28.1 µM | OVCAR-3 15.9 µM | RPMI-8226 17.8 µM | SK-MEL-2 71.8 µM | SK-OV-3 60.7 µM | SNB-19 > 100 µM | T47D 19.5 µM | TK-10 17.3 µM
